US20190185865A1, “USE OF PROKARYOTIC TRANSCRIPTIONAL ACTIVATORS AS METABOLITE BIOSENSORS IN EUKARYOTIC CELLS” (Danmarks Tekniske Universitet, priority 2016, published 2019)

How the values were obtained:
[1] = tested on: BenM; test: CCM-induced GFP expression in yeast strains combining BenM expression cassettes and CYC1p reporter promoter variants (flow cytometry); type: cell-based, Saccharomyces cerevisiae; details: for FC (+/−CCM): 1.4 mM CCM, 24 h
Text: Strains, chemicals and media. Saccharomyces cerevisiae CEN.PK102-5B (MATa ura3-52 his3Δ1 leu2-3/112 MAL2-8^c SUC2), CEN.PK113-5A (MATa, trp1 his3Δ1 leu2-3/112 MAL2-8^c SUC2) and CEN.PK113-7D (wild type, MATa MAL2-8^c SUC2) strains were obtained from Peter Kotter (Johann Wolfgang Goethe-University Frankfurt, Germany). In principal any other yeast strains may be used, such as one obtained from public repository EuroScarf. EasyClone plasmids used in this work are described in Jensen, N. B. et al. EasyClone: method for iterative chromosomal integration of multiple genes in Saccharomyces cerevisiae. FEMS Yeast Res. 14, 238-48 (2014). Escherichia coli strain DH5a was used as a host for cloning and plasmid propagation. The chemicals and Pfu TURBO DNA polymerase were commercially obtained (Sigma-Aldrich and Agilent Technologies Inc., respectively). All acids used were >97% in purity. S. cerevisiae cells were grown at 30° C. in synthetic complete medium as well as drop-out media and agar plates were prepared using pre-mixed drop-out powders (Sigma-Aldrich). Mineral medium was freshly prepared as described previously. For all media containing diacids, 1.4 mM of the individual diacids were dissolved in mineral medium and pH adjusted to 4.5 before sterile filtration. For CCM several dilutions were made to examine the performance of the CCM biosensor. For naringenin, mineral medium was supplemented with 0, 0.05, 0.10 or 0.20 mM naringenin, dissolved in ethanol, the final ethanol concentration for each medium was 2% (v/v), and the final pH of the medium was adjusted to 6.0. E. coli cells were grown at 37° C. in Luria-Bertani (LB) medium supplemented with 100 μg/mL ampicillin.
(§1) Events were analyzed using FlowJo software (TreeStar Inc.).

[2] = target: T1, BenM^H110R, F211V, Y286N (Acinetobacter baylyi, UniProt O68014, F211V/H110R/Y286N); test: CCM-induced GFP expression in yeast expressing engineered BenM variants (epPCR library, FACS, flow cytometry); type: cell-based, Saccharomyces cerevisiae
T1 construct: expressed in transfected cells; host or cells: Saccharomyces cerevisiae; centromeric plasmid (gap repair) or chromosomal integration, REV1p
T1 sequence (O68014 whole entry H110R/F211V/Y286N): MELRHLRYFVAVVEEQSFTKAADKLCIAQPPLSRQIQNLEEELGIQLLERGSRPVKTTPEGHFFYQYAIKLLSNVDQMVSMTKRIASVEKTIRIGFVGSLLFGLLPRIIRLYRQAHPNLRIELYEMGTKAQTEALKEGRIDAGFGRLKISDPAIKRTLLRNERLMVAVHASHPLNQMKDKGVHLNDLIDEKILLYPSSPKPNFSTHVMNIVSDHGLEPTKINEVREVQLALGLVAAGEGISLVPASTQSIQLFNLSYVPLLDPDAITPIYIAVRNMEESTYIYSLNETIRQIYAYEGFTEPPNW
Text: For optimization of the CCM inducibility of BenM, purified products from three consecutive rounds of error-prone PCR (epPCR) of the effector-binding domain (EBD, residues 90-304) of BenM, were co-transformed into yeast together with linearized centromeric plasmid according to Eckert-Boulet et al. (Eckert-Boulet, N., Pedersen, M. L., Krogh, B. O. & Lisby, M. Optimization of ordered plasmid assembly by gap repair in Saccharomyces cerevisiae. Yeast 29, 323-34 (2012)), to allow for in vivo gap repair and library reconstitution of wild-type BenM DNA binding domain (DBD) fused to EBD variants expressed from REV1p. For epPCR we used the GeneMorph II kit according to manufacturer's description (Agilent Technologies). Transformed yeast contained a chromosomal integration of the 209 bp_CYC1p_BenO_T1 promoter controlling the expressing of GFP at EasyClone site 4 on chromosome XII (Mikkelsen, M. D. et al. Microbial production of indolylglucosinolate through engineering of a multi-gene pathway in a versatile yeast expression platform. Metab. Eng. 14, 104-11 (2012)), to allow for FACS-based screening of improved CCM-inducible BenM variants.
A two-step method was used to sort for BenM variants that specifically induce in the presence of CCM. Cells (10× library size, approx. 400,000 cells) were inoculated in mineral medium without inducer and incubated for 24 h at 30° C., diluted into PBS, and then GFP intensity of individual cells was measured using a BD Biosciences Aria (Becton Dickinson) with a blue laser (488 nm) by applying tight gates on the FSC and SSC channels. Only cells displaying auto-fluorescence intensities were sorted in order to limit auto-activating BenM variants. Sorted cells were recovered in mineral medium, followed by subculturing (1:100) into mineral medium containing 1.4 mM (200 mg/L) cis,cis-muconic acid. The cells were grown for 24 h at 30° C., washed and subjected to a second round of FACS. […] Individual clones were subsequently validated using flow cytometry.
as §1

[3] = strain MeLS0131, 491bp_CYC1p:GFP
[4] = strain MeLS0132, 272bp_CYC1p:GFP
[5] = strain MeLS0133, 249bp_CYC1p:GFP
[6] = strain MeLS0134, 209bp_CYC1p:GFP
[7] = strain MeLS0135, 491bp_CYC1p_BenO_T1:GFP
[8] = strain MeLS0136, 272bp_CYC1p_BenO_T1:GFP
[9] = strain MeLS0137, 249bp_CYC1p_BenO_T1:GFP
[10] = strain MeLS0138, 209bp_CYC1p_BenO_T1:GFP
[11] = strain MeLS0177, 491bp_CYC1p_BenO_T2:GFP
[12] = strain MeLS0178, 491bp_CYC1p_BenO_T1/T2:GFP
[13] = strain MeLS0180, 209bp_CYC1p_BenO_T2:GFP
[14] = strain MeLS0181, 209bp_CYC1p_BenO_T1/T2:GFP
[15] = strain MeLS0259, 272bp_CYC1p_BenO_T2:GFP
[16] = strain MeLS0260, 249bp_CYC1p_BenO_T2:GFP
[17] = strain MeLS0261, 272bp_CYC1p_BenO_T1/T2:GFP
[18] = strain MeLS0262, 249bp_CYC1p_BenO_T1/T2:GFP

## O=C(O)/C=C\C=C/C(=O)O [CCM, cis, cis-muconic acid]
[1]; [3]
  Mean fluorescense intensities of GFP (24 h), CCM (1.4 mM): 2899
  FC (+/−CCM): 1.042
[1]; [4]
  Mean fluorescense intensities of GFP (24 h), CCM (1.4 mM): 211
  FC (+/−CCM): 1.213
[1]; [5]
  Mean fluorescense intensities of GFP (24 h), CCM (1.4 mM): 219
  FC (+/−CCM): 1.043
[1]; [6]
  Mean fluorescense intensities of GFP (24 h), CCM (1.4 mM): 171
  FC (+/−CCM): 1.13
[1]; [7]
  Mean fluorescense intensities of GFP (24 h), CCM (1.4 mM): 801
  FC (+/−CCM): 1.062
[1]; [8]
  Mean fluorescense intensities of GFP (24 h), CCM (1.4 mM): 160
  FC (+/−CCM): 1.032
[1]; [9]
  Mean fluorescense intensities of GFP (24 h), CCM (1.4 mM): 180
  FC (+/−CCM): 1.151
[1]; [10]
  Mean fluorescense intensities of GFP (24 h), CCM (1.4 mM): 167
  FC (+/−CCM): 1.133
[1]; [11]
  Mean fluorescense intensities of GFP (24 h), CCM (1.4 mM): 698
  FC (+/−CCM): 1.088
[1]; [12]
  Mean fluorescense intensities of GFP (24 h), CCM (1.4 mM): 241
  FC (+/−CCM): 0.9731
[1]; [13]
  Mean fluorescense intensities of GFP (24 h), CCM (1.4 mM): 165
  FC (+/−CCM): 1.088
[1]; [14]
  Mean fluorescense intensities of GFP (24 h), CCM (1.4 mM): 165
  FC (+/−CCM): 1.102
[1]; [15]
  Mean fluorescense intensities of GFP (24 h), CCM (1.4 mM): 201
  FC (+/−CCM): 1.002
[1]; [16]
  Mean fluorescense intensities of GFP (24 h), CCM (1.4 mM): 313
  FC (+/−CCM): 0.909
[1]; [17]
  Mean fluorescense intensities of GFP (24 h), CCM (1.4 mM): 257
  FC (+/−CCM): 0.7988
[1]; [18]
  Mean fluorescense intensities of GFP (24 h), CCM (1.4 mM): 203
  FC (+/−CCM): 1
[2]; BenM^H110R, diacids 1.4 mM, pH 4.5, 24 h
  specificity of GFP induction among diacids tested: induce GFP expression specifically in response to CCM
[2]; chromosomally integrated BenM^H110R, 1.4 mM (200 mg/L) CCM, 24 h
  maximum induction of GFP output: 10 fold
[2]; plasmid-based expression of BenM^H110R
  GFP output upon CCM induction: 6 fold
